Laboratory results: ChEMBL document CHEMBL5321222, “N(14)-substituted evodiamine derivatives as dual topoisomerase 1/tubulin-Inhibiting anti-gastrointestinal tumor agents” (Eur J Med Chem, 2023)
Calls of active or inactive are those of the source. No cut-off for these calls is given here.

What was measured:
SW480 = assay: Antiproliferative activity against human SW480 cells assessed as reduction in cell viability incubated for 72 hrs by MTT assay; assay type: functional, cell-based; conditions: SW480, 72 h
LoVo = assay: Antiproliferative activity against human LoVo cells assessed as reduction in cell viability incubated for 72 hrs by MTT assay; assay type: functional, cell-based
RKO [1] = assay: Antiproliferative activity against human RKO cells assessed as reduction in cell viability incubated for 72 hrs by MTT assay; assay type: functional, cell-based
HGC-27 = assay: Antiproliferative activity against human HGC-27 cells assessed as reduction in cell viability incubated for 72 hrs by MTT assay; assay type: functional, cell-based; conditions: HGC-27, 72 h
SGC-7901 = assay: Antiproliferative activity against human SGC-7901 cells assessed as reduction in cell viability incubated for 72 hrs by MTT assay; assay type: functional, cell-based; conditions: SGC-7901, 72 h
MGC-803 [2] = assay: Antiproliferative activity against human MGC-803 cells assessed as reduction in cell viability incubated for 72 hrs by MTT assay; assay type: functional, cell-based; conditions: MGC-803, 72 h
GES1 = assay: Antiproliferative activity against human GES1 cells assessed as reduction in cell viability incubated for 72 hrs by MTT assay; assay type: functional, cell-based; conditions: GES1, 72 h
MGC-803 [3] = assay: Induction of cell cycle arrest in human MGC-803 cells at 0.2 uM incubated for 24 hrs by propidium iodide staining based flow cytometry analysis; assay type: functional
MGC-803 [4] = assay: Inhibition of cell […] in human MGC-803 cells at 50 nM incubated for 24 hrs by scratch wound healing assay; assay type: functional, cell-based
RKO [5] = assay: Inhibition of cell migration in human RKO cells assessed as reduction in tumor wound healing incubated for 24 hrs by microscopic analysis; assay type: functional, cell-based; conditions: dose 10-90 nM
MGC-803 [6] = assay: Induction of apoptosis in human MGC-803 cells assessed as late apoptotic cells at 0.2 uM incubated for 24 hrs by propidium iodide and Annexin V/FITC staining based flow cytometry assay (reference value: 4.10%); assay type: functional
RKO [7] = assay: Induction of cell cycle arrest in human RKO cells at 0.2 uM incubated for 24 hrs by propidium iodide staining based flow cytometry analysis; assay type: functional
MGC-803 [8] = assay: Induction of apoptosis in human MGC-803 cells assessed as early apoptotic cells at 0.2 uM incubated for 24 hrs by propidium iodide and Annexin V/FITC staining based flow cytometry assay (reference value: 1.85%); assay type: functional
RKO [9] = assay: Induction of apoptosis in human RKO cells assessed as early apoptotic cells at 0.2 uM incubated for 24 hrs by propidium iodide and Annexin V/FITC staining based flow cytometry assay (reference value: 0.16%); assay type: functional
RKO [10] = assay: Induction of apoptosis in human RKO cells assessed as late apoptotic cells at 0.2 uM incubated for 24 hrs by propidium iodide and Annexin V/FITC staining based flow cytometry assay (reference value: 0.50%); assay type: functional
MGC-803 [11] = assay: Induction of morphological changes in human MGC-803 cells at 0.2 uM incubated for 24 hrs by Giemsa staining based micrscopic analysis; assay type: functional, cell-based
RKO [12] = assay: Induction of morphological changes in human RKO cells at 0.2 uM incubated for 24 hrs by Giemsa staining based micrscopic analysis; assay type: functional, cell-based
[13] = target: T1, DNA topoisomerase 1 (Homo sapiens) (UniProt P11387); assay: Inhibition of topoisomerase 1 (unknown origin) at 200 uM using PBR322 DNA as substrate incubated for 30 mins by agarose gel electrophoresis
T1 sequence (whole entry): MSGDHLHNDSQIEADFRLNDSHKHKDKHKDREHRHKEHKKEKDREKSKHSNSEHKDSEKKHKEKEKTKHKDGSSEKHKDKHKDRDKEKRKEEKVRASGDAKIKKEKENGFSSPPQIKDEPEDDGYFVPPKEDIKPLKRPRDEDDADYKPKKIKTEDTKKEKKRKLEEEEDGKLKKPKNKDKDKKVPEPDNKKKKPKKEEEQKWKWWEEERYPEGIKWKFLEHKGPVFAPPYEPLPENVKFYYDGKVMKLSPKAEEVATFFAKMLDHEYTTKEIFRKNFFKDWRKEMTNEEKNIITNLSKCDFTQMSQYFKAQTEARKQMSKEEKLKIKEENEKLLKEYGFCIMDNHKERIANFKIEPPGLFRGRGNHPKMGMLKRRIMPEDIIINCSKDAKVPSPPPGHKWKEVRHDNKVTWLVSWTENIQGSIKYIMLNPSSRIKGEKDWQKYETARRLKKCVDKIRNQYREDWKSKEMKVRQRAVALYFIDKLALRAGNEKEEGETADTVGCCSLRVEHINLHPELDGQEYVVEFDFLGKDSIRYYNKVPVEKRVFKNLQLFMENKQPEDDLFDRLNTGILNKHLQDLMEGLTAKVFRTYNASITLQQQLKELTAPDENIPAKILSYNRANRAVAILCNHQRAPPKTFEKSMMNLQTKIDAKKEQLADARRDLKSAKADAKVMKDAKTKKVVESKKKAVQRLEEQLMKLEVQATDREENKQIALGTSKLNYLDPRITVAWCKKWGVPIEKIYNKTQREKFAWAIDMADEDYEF

MGC-803 [14] = assay: Antiproliferative activity against human MGC-803 cells assessed as reduction in cell viability at 90 nM incubated for 24 hrs by BrdU staining based fluorescence microscopic analysis; assay type: functional
RKO [15] = assay: Antiproliferative activity against human RKO cells assessed as reduction in cell viability at 90 nM incubated for 24 hrs by BrdU staining based fluorescence microscopic analysis; assay type: functional
RKO [16] = assay: Induction of cell cycle arrest in human RKO cells assessed as accumulation of cells at G2/M phase at 0.2 uM incubated for 24 hrs by propidium iodide staining based flow cytometry analysis; assay type: functional
MGC-803 [17] = assay: Induction of cell cycle arrest in human MGC-803 cells assessed as accumulation of cells at G2/M phase at 0.2 uM incubated for 24 hrs by propidium iodide staining based flow cytometry analysis; assay type: functional
RKO [18] = assay: Induction of cell cycle arrest in human RKO cells assessed as accumulation of cells at S phase at 0.2 uM incubated for 24 hrs by propidium iodide staining based flow cytometry analysis; assay type: functional

| SMILES | IC50 (SW480) | IC50 (LoVo) | IC50 (RKO [1]) | IC50 (HGC-27) | IC50 (SGC-7901) | IC50 (MGC-803 [2]) | IC50 (GES1) | also measured |
| --- | --- | --- | --- | --- | --- | --- | --- | --- |
| O=C1c2ccccc2N(CCC2OCCO2)C2c3[nH]c4ccccc4c3CCN12 (stereo not given) | > 30 µM | > 30 µM | > 30 µM | > 30 µM | 5.63 µM | 15.7 µM | > 30 µM | – |
| CN1c2ccccc2C(=O)N2CCc3c([nH]c4ccccc34)C21 (racemic) | > 30 µM | 24.2 µM | 29.7 µM | > 30 µM | 17.7 µM | 8.52 µM | > 30 µM | Activity (MGC-803 [3]): inactive; inhibition (MGC-803 [4]): inactive; inhibition (RKO [5]): inactive; Activity (MGC-803 [6]): 5.24%; Activity (RKO [7]): inactive; Activity (MGC-803 [8]): 3.15%; Activity (RKO [9]): 4.63%; Activity (RKO [10]): 7.71%; Activity (MGC-803 [11]): inactive; Activity (RKO [12]): inactive; inhibition [13]: Active |
| COc1cc2c(c(OC)c1OC)-c1ccc(OC)c(=O)cc1[C@@H](NC(C)=O)CC2 [COLCHICINE] | – | 0.23 µM | – | – | 17.3 µM | 7.99 µM | – | Activity (MGC-803 [14]): Active; Activity (RKO [15]): Active; Activity (MGC-803 [6]): 7.63%; Activity (RKO [16]): 82.29%; Activity (MGC-803 [8]): 6.95%; Activity (RKO [9]): 5.3%; Activity (RKO [10]): 5.1%; Activity (MGC-803 [11]): Active; Activity (RKO [12]): Active |
| C=CCN1c2ccccc2C(=O)N2CCc3c([nH]c4ccccc34)C21 (stereo not given) | 0.38 µM | 1 µM | 0.38 µM | 1.05 µM | 0.27 µM | 0.06 µM | – | inhibition [13]: Active |
| CC(C)CN1c2ccccc2C(=O)N2CCc3c([nH]c4ccccc34)C21 (stereo not given) | 2.2 µM | 0.5 µM | 0.88 µM | 1.95 µM | 0.35 µM | 0.16 µM | 1.08 µM | inhibition [13]: Active |
| COc1ccc(CCN2c3ccccc3C(=O)N3CCc4c([nH]c5ccccc45)C32)cc1OC (stereo not given) | > 30 µM | > 30 µM | > 30 µM | > 30 µM | > 30 µM | > 30 µM | > 30 µM | – |
| C=C(CN1c2ccccc2C(=O)N2CCc3c([nH]c4ccccc34)C21)C(=O)OC (stereo not given) | > 30 µM | > 30 µM | > 30 µM | > 30 µM | > 30 µM | 19.7 µM | > 30 µM | – |
| CCCCCN1c2ccccc2C(=O)N2CCc3c([nH]c4ccccc34)C21 (stereo not given) | 4.41 µM | > 30 µM | 1.87 µM | 7.74 µM | 1.22 µM | 0.75 µM | 2.82 µM | – |
| CC[C@@]1(O)C(=O)OCc2c1cc1n(c2=O)Cc2cc3c(CN(C)C)c(O)ccc3nc2-1 [TOPOTECAN] | 0.09 µM | 0.12 µM | 0.42 µM | 0.49 µM | 0.69 µM | 0.42 µM | 1.06 µM | inhibition (MGC-803 [4]): inactive; inhibition (RKO [5]): inactive; Activity (MGC-803 [6]): 3.67%; Activity (MGC-803 [17]): 82.29%; Activity (RKO [16]): 31.92%; Activity (RKO [18]): 67.69%; Activity (MGC-803 [8]): 5.11%; Activity (RKO [9]): 14.2%; Activity (RKO [10]): 19.28%; Activity (MGC-803 [11]): inactive; Activity (RKO [12]): inactive; inhibition [13]: Active |
| CCN1c2ccccc2C(=O)N2CCc3c([nH]c4ccccc34)C21 (stereo not given) | 0.98 µM | 1.2 µM | 0.41 µM | 2.15 µM | 0.43 µM | 0.17 µM | 0.3 µM | inhibition [13]: Active |
| C[Si](C)(C)CN1c2ccccc2C(=O)N2CCc3c([nH]c4ccccc34)C21 (stereo not given) | 3.28 µM | 7.06 µM | 2.21 µM | > 3 µM | 2.47 µM | 1.78 µM | 4.24 µM | – |
| COc1ccc(CN2c3ccccc3C(=O)N3CCc4c([nH]c5ccccc45)C32)cc1 (stereo not given) | > 30 µM | 19.7 µM | 5.51 µM | 17.8 µM | 5.96 µM | 4.49 µM | 8.53 µM | – |
| CC(C)N1c2ccccc2C(=O)N2CCc3c([nH]c4ccccc34)C21 (stereo not given) | 1.17 µM | 0.54 µM | 0.49 µM | 2.27 µM | 0.38 µM | 0.13 µM | 0.9 µM | – |
| C/C=C/C(=O)N1c2ccccc2C(=O)N2CCc3c([nH]c4ccccc34)C21 (stereo not given) | 6.99 µM | > 30 µM | 10.2 µM | 4.37 µM | 9.59 µM | 10.3 µM | 13.6 µM | – |
| CC(C)(C)CN1c2ccccc2C(=O)N2CCc3c([nH]c4ccccc34)C21 (stereo not given) | 1.84 µM | 1.95 µM | 1.31 µM | > 3 µM | 1.21 µM | 0.91 µM | 1.68 µM | – |
| O=C1c2ccccc2N(CC2CC2)C2c3[nH]c4ccccc4c3CCN12 (stereo not given) | 1.84 µM | 0.44 µM | 0.42 µM | 1.85 µM | 0.22 µM | 0.1 µM | 0.21 µM | inhibition [13]: Active |
| COC(=O)CN1c2ccccc2C(=O)N2CCc3c([nH]c4ccccc34)C21 (stereo not given) | > 30 µM | > 30 µM | 23.4 µM | > 30 µM | 6.66 µM | > 30 µM | > 30 µM | – |
| CCCCN1c2ccccc2C(=O)N2CCc3c([nH]c4ccccc34)C21 (stereo not given) | 1.03 µM | 1.99 µM | 0.45 µM | 1.7 µM | 0.46 µM | 0.16 µM | 0.5 µM | – |
| Cc1ccc(CN2c3ccccc3C(=O)N3CCc4c([nH]c5ccccc45)C32)cc1 (stereo not given) | > 30 µM | > 30 µM | 12.5 µM | > 30 µM | 6.11 µM | 7.06 µM | 9.74 µM | – |
| C#CCN1c2ccccc2C(=O)N2CCc3c([nH]c4ccccc34)C21 (stereo not given) | 1.22 µM | 1.5 µM | 0.85 µM | 1.52 µM | 0.64 µM | 0.21 µM | 1.2 µM | – |
| O=C1c2ccccc2N(Cc2ccccc2)C2c3[nH]c4ccccc4c3CCN12 (stereo not given) | 13.3 µM | > 30 µM | 5.96 µM | 10.7 µM | 11.6 µM | 9.34 µM | 15.9 µM | – |
| O=C1c2ccccc2N(CCBr)C2c3[nH]c4ccccc4c3CCN12 (stereo not given) | 0.97 µM | 1.34 µM | 0.98 µM | 2.05 µM | 1.06 µM | 0.55 µM | 1.34 µM | – |
